Measurements taken from publication PMC7503500, “A Structure-Activity Relationship Comparison of Imidazodiazepines Binding at Kappa, Mu, and Delta Opioid Receptors and the GABAA Receptor” (Molecules, 2020).
pEC50, pKi: −log10 of the molar value. Entries after “also recorded” stand apart in the source; their conditions may differ. Read-outs that look alike come from different tables or passages of the source.

Assays:
[1] = system: synaptic benzodiazepine-sensitive receptors (BZR), GABAAR; assay: 3H-flunitrazepam binding, rat brain homogenate; conditions: for BZR % (percent inhibition): at 10,000 nM; for pKi: read-out: BZR (Ki)
[2] = target: κ opioid receptor (KOR) (Homo sapiens, UniProt P41145); assay: Radioligand competition binding, KOR ([3H]-U69593), HEK293 cell homogenates; conditions: for inhibition at 10 µM: read-out: KOR % (percent inhibition), at 10,000 nM
[3] = target: T1, human KOR (Homo sapiens, UniProt P41145); assay: cell-based
T1 construct: expressed in transfected cells; host or cells: HEK293T

[4] = target: µ opioid receptor (MOR) (Homo sapiens, UniProt P35372); assay: Radioligand competition binding, MOR ([3H]-DAMGO), HEK293 cell homogenates; conditions: for inhibition at 10 µM: read-out: MOR % (percent inhibition), at 10,000 nM
[5] = target: δ opioid receptor (DOR) (Homo sapiens, UniProt P41143); assay: Radioligand competition binding, DOR ([3H]-DADLE), HEK293 cell homogenates; conditions: for inhibition at 10 µM: read-out: DOR % (percent inhibition), at 10,000 nM
[6] = system: activated microglia; parameters: method as in PMID 32511908; conditions: reversed by KOR antagonist norbinaltorphimine; cited from earlier work
[7] = parameters: method as in PMID 32511908; conditions: cited from earlier work
[8] = parameters: method as in PMID 32511908; conditions: both phases; cited from earlier work

Row | SMILES | BZR % (percent inhibition) [1] | pKi [1] | pKi [2] | Selectivity in respect to BZR binding ([2]; KOR vs BZR Ki) | Opioid receptor selectivity in comparison to MOR ([2]; KOR vs MOR Ki) | inhibition at 10 µM ([2]; [3H]-U69593) | Efficacy in comparison to full agonist salvinorin A ([3]; BRET GαoA recruitment) | pEC50 ([3]; BRET, n = 24, mean and SEM, read-out: EC50, recruitment of GαoA protein to KOR) | pKi [4] | inhibition at 10 µM ([4]; [3H]-DAMGO) | inhibition at 10 µM [5] | Production of nitric oxide (NO) by activated microglia [6] | KOR % (percent inhibition) ([2]; at 10,000 nM, [3H]-U69593) | pKi ([2]; read-out: KOR (Ki), [3H]-U69593, HEK293 homogenates) | Impairment of sensorimotor coordination [7] | MOR % (percent inhibition) ([4]; at 10,000 nM, [3H]-DAMGO) | Agitation response in the formalin nociception test [8] | DOR % (percent inhibition) ([5]; at 10,000 nM) | KOR affinity (in words) ([2]; screening at 10,000 nM)
1 | C#Cc1ccc2c(c1)C(c1ccccc1F)=N[C@@H](C)c1c(C(=O)OC(C)(C)C)ncn1-2 [GL-I-30] | 96% | 6.75 | 7.57 | 6.5 fold | 68 fold | 95% | 100% | 7.49 | 5.73 | 54% | 7% | – | – | – | – | – | – | – | –
2 | CCc1noc(-c2ncn3c2[C@@H](C)N=C(c2ccccc2F)c2cc(C4CC4)ccc2-3)n1 [GL-IV-03] | 65% | – | – | – | – | – | – | – | – | – | – | reduced the production of nitric oxide (NO) | 91% | 6.63 | without inducing impairment of sensorimotor coordination | 25% | alleviated the agitation response in both phases | 67% | –
3 | C#Cc1ccc2c(c1)C(c1ccccc1F)=N[C@H](C)c1c(C(=O)OCC)ncn1-2 [SH-053-2′F-R-CH3] | 85% | 6.42 | 6.62 | – | – | 89% | – | – | – | 28% | 32% | – | – | – | – | – | – | – | –
4 | C[C@H]1N=C(c2ccccc2F)c2cc(Br)ccc2-n2cnc(C(=O)O)c21 [GL-II-93] | 73% | 7.07 | – | – | – | 0% | – | – | – | 0% | 0% | – | – | – | – | – | – | – | No KOR affinity; also recorded: insignificant KOR affinity
5 | C#Cc1ccc2c(c1)C(c1ccccc1F)=N[C@@H](C)c1c(C(=O)OCC)ncn1-2 [SH-053-2′F-S-CH3] | 92% | 6.95 | 7.05 | – | – | 93% | – | – | – | 7% | 36% | – | – | – | – | – | – | – | –
6 | C#Cc1ccc2c(c1)C(c1ccccn1)=NCc1c(C(=O)O)ncn1-2 [SR-II-54] | 80% | 7.16 | – | – | – | 9% | – | – | – | 8% | 1% | – | – | – | – | – | – | – | –
